Measurements from patent US20260250318A1, “COMPOSITIONS AND METHODS FOR CROSSING THE BLOOD BRAIN BARRIER” (VOYAGER THERAPEUTICS, INC., priority 2022, published 2026).

How the values were obtained:
brain = assay: Matured TTM-001 and TTM-002 variants, NGS enrichment in mouse brain; assay type: in vivo, mice; conditions: NGS fold-enrichment, relative to AAV9 control
[1] = tested on: brains, heart, liver, muscle, and DRG of the NHPs; assay: Maturation of TTM-001 and TTM-002 capsids, NGS enrichment in NHP tissues; assay type: in vivo; conditions: relative to AAV9 control
In short: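 Variants carry mutations within and flanking the loop IV peptide insert: positions 450–466 were triplet-randomized, while positions 449–466 received low-frequency point mutations. The combined pool went into two NHPs, and each peptide was scored by NGS enrichment ratio against AAV9.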

[2] = NGS fold-enrichment of RNA, NHP brain
[3] = NGS fold-enrichment, NHP liver DNA
[4] = NGS fold-enrichment, NHP liver RNA
[5] = NGS fold-enrichment, NHP muscle
[6] = NGS fold-enrichment, DRG of NHPs
[7] = NGS fold-enrichment, RNA, brain of NHPs
[8] = NGS fold-enrichment, heart of NHPs
[9] = NGS fold-enrichment, liver DNA of NHPs
[10] = NGS fold-enrichment, liver RNA of NHPs
[11] = NGS fold-enrichment, muscle of NHPs

Sequence	Fold Enrichment relative to AAV9, Brain (Mouse) (brain; mouse brain) [fold]	Fold Enrichment relative to AAV9, Brain (NHP) [1, 2] [fold]	Fold Enrichment relative to AAV9, DRG (NHP) ([1]; NGS fold-enrichment, NHP DRG) [fold]	Fold Enrichment relative to AAV9, Heart (NHP) ([1]; NGS fold-enrichment, NHP heart) [fold]	Fold Enrichment relative to AAV9, Liver DNA (NHP) [1, 3] [fold]	Fold Enrichment relative to AAV9, Liver RNA (NHP) [1, 4] [fold]	Fold Enrichment relative to AAV9, Muscle (NHP) [1, 5] [fold]	Fold Enrichment relative to AAV9, Brain (Mouse) (brain; brain of mice) [fold]	Fold Enrichment relative to AAV9, DRG (NHP) [1, 6] [fold]	Fold Enrichment relative to AAV9, Brain (NHP) [1, 7] [fold]	Fold Enrichment relative to AAV9, Heart (NHP) [1, 8] [fold]	Fold Enrichment relative to AAV9, Liver DNA (NHP) [1, 9] [fold]	Fold Enrichment relative to AAV9, Liver RNA (NHP) [1, 10] [fold]	Fold Enrichment relative to AAV9, Muscle (NHP) [1, 11] [fold]
KTINGHDSPHKSGQLVIT	11.323	76.781	0.089	0.064	0.475	0.338	0.000	–	–	–	–	–	–	–
KTINGHDSPHKSGQNKLE	12.419	76.204	0.000	1.430	0.031	0.015	0.000	–	–	–	–	–	–	–
KTINGHDSPHKSGQSKQA	7.510	101.460	0.000	0.222	0.114	0.185	0.000	–	–	–	–	–	–	–
KTINGHDSPHKSGQSVPT	6.768	77.840	0.000	0.003	0.061	0.136	0.000	–	–	–	–	–	–	–
KTINGHDSPHKSGQSVQT	9.321	75.748	0.010	6.808	0.058	0.165	0.000	–	–	–	–	–	–	–
KTINGHDSPHKSGRTQET	7.270	81.599	0.000	0.062	0.137	0.000	0.000	–	–	–	–	–	–	–
KTINGHDSPHKSNAWQQT	15.788	84.825	0.000	0.016	0.132	0.000	0.000	–	–	–	–	–	–	–
KTINGHDSPHKSRLNQPT	5.598	92.883	0.000	0.070	1.075	0.904	0.050	–	–	–	–	–	–	–
KTINGHDSPHKSRQDQHT	8.540	75.595	0.000	0.049	0.045	0.030	0.118	–	–	–	–	–	–	–
KTINGHDSPHKSRQSQHT	8.324	88.544	0.499	0.046	0.032	0.059	0.000	–	–	–	–	–	–	–
KTINGHDSPHKSVQNHLN	14.557	196.758	0.000	0.000	0.000	0.000	0.000	–	–	–	–	–	–	–
KTINGHDSPHKSVQTHQT	7.519	77.309	0.237	0.062	0.116	0.000	0.000	–	–	–	–	–	–	–
KTINGHDSPHKSWVRQQT	11.687	125.537	0.000	0.033	0.174	0.291	0.000	–	–	–	–	–	–	–
KTINGHDSPHKTGQNQPP	8.865	77.357	0.000	0.149	0.096	0.000	0.000	–	–	–	–	–	–	–
KTINGHDSPHKTGQNQQK	6.379	77.562	0.000	1.056	0.000	0.000	0.000	–	–	–	–	–	–	–
KTINGHESPHKSAQNRQT	4.815	95.531	0.000	0.113	0.082	0.130	0.000	–	–	–	–	–	–	–
KTINGHESPHKSGQNIQP	14.042	253.840	0.000	0.000	0.000	0.000	0.000	–	–	–	–	–	–	–
KTINGHESPHKSGQNQHS	9.720	92.248	0.000	0.032	0.088	0.090	0.012	–	–	–	–	–	–	–
KTINGHESPHKSGQTQQI	3.989	86.089	0.000	0.222	0.024	0.000	0.000	–	–	–	–	–	–	–
KTINGHESPHKSGRSQQT	9.378	97.106	0.000	3.329	0.181	0.000	0.022	–	–	–	–	–	–	–
KTINGHGSPHSKAQNPQT	11.001	83.478	0.000	0.288	0.260	0.000	0.219	–	–	–	–	–	–	–
KTINGIGSPHSKAQNLGT	–	–	–	–	–	–	–	104.769	0.000	70.543	0.071	0.135	0.000	0.000
KTINGLGSPHSKSQNQQT	–	–	–	–	–	–	–	64.139	0.000	62.170	0.157	0.107	0.146	0.000
KTINGNDSPHKSVQNHQT	7.920	120.002	0.000	0.099	0.000	0.000	0.788	–	–	–	–	–	–	–
